Converted amounts (≈) assume the structure as drawn. Read-outs that look alike come from different tables or passages of the source.
Legend:
[1] = system: Streptococcus pyogenes C203; assay: protection of mice experimentally infected with S. pyogenes C203; format: in vivo; conditions: mice, mg/kg × 2, doses given 1 and 4 hours postinfection, read-out: ED50
In short: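 Activity is given as ED50, the mg/kg dose (×2) protecting half of the mice infected with S. pyogenes C203. Compound was dosed 1 and 4 h after infection.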

[2] = system: Staphylococcus epidermidis 222; assay: standard agar-dilution MIC assay; format: cell-based; conditions: Staphylococcus epidermidis, 222
Method: (§1) The MIC's in Table III were determined by standard agar-dilution assays. The MIC's in Table IV were obtained using conventional brothdilution microtiter tests.

[3] = system: Escherichia coli EC14; assay: standard agar-dilution MIC assay; format: cell-based; conditions: agar-dilution, read-out: MIC
Method: as §1

[4] = system: Streptococcus Group D X66; assay: standard agar-dilution MIC assay; format: cell-based; conditions: read-out: MIC
Method: as §1

[5] = system: Staphylococcus aureus X400; assay: standard agar-dilution MIC assay; format: cell-based; conditions: Staphylococcus aureus, X400
Method: as §1

[6] = system: Haemophilus influenzae C.L.; assay: standard agar-dilution MIC assay; format: cell-based; conditions: Haemophilus influenzae
Method: as §1

[7] = system: Klebsiella pneumoniae X68; assay: standard agar-dilution MIC assay; format: cell-based; conditions: Klebsiella pneumoniae, X68; agar-dilution; read-out: MIC
Method: as §1

[8] = system: Streptococcus Group D 2041; assay: standard agar-dilution MIC assay; format: cell-based; conditions: GROUPD2041
Method: as §1

[9] = system: Streptococcus pyogenes C203; assay: standard agar-dilution MIC assay; format: cell-based; conditions: Streptococcus pyogenes, C203
Method: as §1

[10] = system: Staphylococcus aureus V41; assay: standard agar-dilution MIC assay; format: cell-based; conditions: Staphylococcus aureus, V41
Method: as §1

[11] = system: Pseudomonas aeruginosa X239; assay: standard agar-dilution MIC assay; format: cell-based; conditions: Pseudomonas aeruginosa, X239; agar-dilution; read-out: MIC
Method: as §1

[12] = system: Staphylococcus epidermidis EPI1; assay: standard agar-dilution MIC assay; format: cell-based; conditions: Staphylococcus epidermidis, EPI1
Method: as §1

[13] = system: Staphylococcus aureus X1.1; assay: standard agar-dilution MIC assay; format: cell-based; conditions: Staphylococcus aureus, X1.1
Method: as §1

[14] = system: Mycoplasma hyopneumoniae S5972; assay: broth-dilution microtiter MIC test; format: cell-based; conditions: Mesomycoplasma hyopneumoniae, S5972
Method: as §1

[15] = system: Pasteurella multocida 17E; assay: broth-dilution microtiter MIC test; format: cell-based; conditions: Pasteurella multocida, 17E
Method: as §1

[16] = system: Pasteurella multocida 60A; assay: broth-dilution microtiter MIC test; format: cell-based; conditions: Pasteurella multocida, 60A
Method: as §1

[17] = system: Streptococcus sp. 19F; assay: broth-dilution microtiter MIC test; format: cell-based; conditions: Streptococcus, SP.19F
Method: as §1

[18] = system: Mycoplasma gallisepticum 36H; assay: broth-dilution microtiter MIC test; format: cell-based; conditions: Mycoplasmoides gallisepticum, 36H
Method: as §1

[19] = system: Pasteurella multocida 22A; assay: broth-dilution microtiter MIC test; format: cell-based; conditions: Pasteurella multocida, 22A
Method: as §1

[20] = system: Mycoplasma gallisepticum 29C; assay: broth-dilution microtiter MIC test; format: cell-based; conditions: Mycoplasmoides gallisepticum, 29C
Method: as §1

[21] = system: Pasteurella multocida 40G; assay: broth-dilution microtiter MIC test; format: cell-based; conditions: Pasteurella multocida, 40G
Method: as §1

[22] = system: Pasteurella multocida 68C; assay: broth-dilution microtiter MIC test; format: cell-based; conditions: Pasteurella multocida, 68C
Method: as §1

[23] = system: Pasteurella hemolytica 23C; assay: broth-dilution microtiter MIC test; format: cell-based; conditions: Pasteurella, 23C
Method: as §1

[24] = system: Pasteurella hemolytica 41D; assay: broth-dilution microtiter MIC test; format: cell-based; conditions: Pasteurella, 41D
Method: as §1

[25] = system: Bordetella bronchiseptica; assay: broth-dilution microtiter MIC test; format: cell-based; conditions: Bordetella bronchiseptica; broth-dilution microtiter; read-out: MIC
Method: as §1

[26] = system: Mycoplasma gallisepticum 15E; assay: broth-dilution microtiter MIC test; format: cell-based; conditions: Mycoplasmoides gallisepticum, 15E
Method: as §1

[27] = system: Pasteurella hemolytica 22C; assay: broth-dilution microtiter MIC test; format: cell-based; conditions: Pasteurella, 22C
Method: as §1

[28] = system: Staphylococcus aureus 19C; assay: broth-dilution microtiter MIC test; format: cell-based; conditions: Staphylococcus aureus, 19C
Method: as §1

[29] = system: Staphylococcus aureus S13E; assay: microbe, parasite or virus in culture; format: cell-based; conditions: Staphylococcus aureus, S13E
Method: as §1

[30] = system: Streptococcus pneumoniae Park I; assay: microbe, parasite or virus in culture; format: cell-based; conditions: Streptococcus pneumoniae
Method: as §1

[31] = system: Haemophilus influenzae 76; assay: standard agar-dilution MIC assay; format: cell-based; conditions: Haemophilus influenzae, 76
Method: as §1

[32] = system: Mycoplasma synoviae 40A; assay: broth-dilution microtiter MIC test; format: cell-based; conditions: Mycoplasmopsis synoviae, 40A
Method: as §1

[33] = system: Mycoplasma hyorhinis 29E; assay: broth-dilution microtiter MIC test; format: cell-based; conditions: Mycoplasma, 29E
Method: as §1

[34] = system: Streptococcus Group D 9960; assay: standard agar-dilution MIC assay; format: cell-based; conditions: GROUPD9960, read-out: MIC
Method: as §1

[35] = broth-dilution microtiter, read-out: MIC

Row | SMILES | ED50 ([1]; C203, Oral) [mg/kg] | ED50 ([1]; C203, sc, Subcutaneous) [mg/kg] | MIC ([2]; agar-dilution, read-out: MIC) [µg/mL] | MIC [3] [µg/mL] | MIC [4] [µg/mL] | MIC [6] [µg/mL] | MIC [7] [µg/mL] | MIC [8] [µg/mL] | MIC [11] [µg/mL] | MIC [12] [µg/mL] | MIC [13] [µg/mL] | MIC [15] [µg/mL] | MIC [16] [µg/mL] | MIC [17] [µg/mL] | MIC [19] [µg/mL] | MIC [20] [µg/mL] | MIC [23] [µg/mL] | MIC [24] [µg/mL] | MIC [25] [µg/mL] | MIC [29] [µg/mL] | further results
1 | CCC1OC(=O)CC(O)C(C)C(OC2OC(C)C(O)C(N(C)C)C2O)C(CCOc2ccccc2)CC(C)C(=O)C=CC(C)=CC1COC1OC(C)C=CC1OC (stereo not drawn) [Compound 43, 3",4"-Di(dehydrodeoxy)-20-DH-20-O-phenyl-lactenocin] | 77.7 | > 10 | 0.12 (≈ 0.15 µM) | > 128 | 1 (≈ 1.25 µM) | 32 (≈ 39.9 µM) | > 128 | 1 (≈ 1.25 µM) | > 128 | 0.25 (≈ 0.312 µM) | 0.25 (≈ 0.312 µM) | 25 (≈ 31.2 µM) | 25 (≈ 31.2 µM) | 0.78 (≈ 0.973 µM) | 50 (≈ 62.3 µM) | 0.39 (≈ 0.486 µM) | 50 (≈ 62.3 µM) | 50 (≈ 62.3 µM) | > 50 | 0.25 (≈ 0.312 µM) | MIC ([5]; agar-dilution, Methicillin-resistant strain, read-out: MIC): 0.25 µg/mL (≈ 0.312 µM); MIC [9]: 0.25 µg/mL (≈ 0.312 µM); MIC ([10]; agar-dilution, Penicillin-resistant strain, read-out: MIC): 0.25 µg/mL (≈ 0.312 µM); MIC [14]: 6.25 µg/mL (≈ 7.79 µM); MIC [18]: 25 µg/mL (≈ 31.2 µM); MIC [21]: 25 µg/mL (≈ 31.2 µM); MIC [22]: 12.5 µg/mL (≈ 15.6 µM); MIC [26]: 50 µg/mL (≈ 62.3 µM); MIC [27]: 50 µg/mL (≈ 62.3 µM); MIC [28]: 1.56 µg/mL (≈ 1.95 µM); MIC [30]: 0.5 µg/mL (≈ 0.623 µM)
2 | CCC1OC(=O)CC(O)C(C)C(OC2OC(C)C(OC3CC(C)(O)C(O)C(C)O3)C(N(C)C)C2OC(C)=O)C(CC=O)CC(C)C(=O)C=CC(C)=CC1COC1OC(C)C2OC(=O)OC2C1OC (stereo not drawn) [Compound 48] | 28 | 1.53 | 0.5 (≈ 0.515 µM) | > 128 | 2 (≈ 2.06 µM) | 32 (≈ 33 µM) | > 128 | 2 (≈ 2.06 µM) | > 128 | 1 (≈ 1.03 µM) | 1 (≈ 1.03 µM) |  |  | 0.39 (≈ 0.402 µM) | 50 (≈ 51.5 µM) | 0.195 (≈ 0.201 µM) | 50 (≈ 51.5 µM) | 50 (≈ 51.5 µM) | > 50 | 1 (≈ 1.03 µM) | MIC ([31]; agar-dilution, Ampicillin-resistant strain, read-out: MIC): 16 µg/mL (≈ 16.5 µM); MIC [5]: 2 µg/mL (≈ 2.06 µM); MIC ([9]; agar-dilution, read-out: MIC): 0.5 µg/mL (≈ 0.515 µM); MIC [10]: 1 µg/mL (≈ 1.03 µM); MIC [14, 35]: 0.097 µg/mL (≈ 0.1 µM); MIC [32, 35]: 0.097 µg/mL (≈ 0.1 µM); MIC ([15]; broth-dilution microtiter, Bovine isolate, read-out: MIC): 12.5 µg/mL (≈ 12.9 µM); MIC ([16]; broth-dilution microtiter, Avian isolate, read-out: MIC): 25 µg/mL (≈ 25.8 µM); MIC [18]: 50 µg/mL (≈ 51.5 µM); MIC [33, 35]: 1.56 µg/mL (≈ 1.61 µM); MIC [21, 35]: 25 µg/mL (≈ 25.8 µM); MIC [22, 35]: 12.5 µg/mL (≈ 12.9 µM); MIC [26, 35]: 12.5 µg/mL (≈ 12.9 µM); MIC [27, 35]: > 50 µg/mL; MIC [28, 35]: 1.56 µg/mL (≈ 1.61 µM); MIC ([30]; agar-dilution, read-out: MIC): 0.12 µg/mL (≈ 0.124 µM)
3 | CCC1OC(=O)CC(O)C(C)C(OC2OC(C)C(OC3CC(C)(O)C(O)C(C)O3)C(N(C)C)C2O)C(CC=O)CC(C)C(=O)C=CC(C)=CC1COC1OC(C)C2OC(=O)OC2C1OC (stereo not drawn) [Compound 49, Macrocin-3'",4'"-Carbonate Derivative] | 85.6 | 1 |  | > 128 | 1 (≈ 1.08 µM) | 32 (≈ 34.5 µM) | > 128 |  | > 128 | 1 (≈ 1.08 µM) | 0.5 (≈ 0.539 µM) | 12.5 (≈ 13.5 µM) | 25 (≈ 26.9 µM) | 0.39 (≈ 0.42 µM) | 25 (≈ 26.9 µM) | 0.195 (≈ 0.21 µM) | 25 (≈ 26.9 µM) | 50 (≈ 53.9 µM) | > 50 | 0.5 (≈ 0.539 µM) | MIC [31]: 16 µg/mL (≈ 17.2 µM); MIC [2]: 0.25 µg/mL (≈ 0.269 µM); MIC [34]: 1 µg/mL (≈ 1.08 µM); MIC [5]: 1 µg/mL (≈ 1.08 µM); MIC ([9]; agar-dilution, read-out: MIC): 0.12 µg/mL (≈ 0.129 µM); MIC [10]: 0.5 µg/mL (≈ 0.539 µM); MIC [14, 35]: 0.097 µg/mL (≈ 0.105 µM); MIC [32]: 0.195 µg/mL (≈ 0.21 µM); MIC [18, 35]: > 50 µg/mL; MIC [33]: 0.78 µg/mL (≈ 0.84 µM); MIC [21]: 25 µg/mL (≈ 26.9 µM); MIC [22]: 6.25 µg/mL (≈ 6.73 µM); MIC [26]: 25 µg/mL (≈ 26.9 µM); MIC [27]: 50 µg/mL (≈ 53.9 µM); MIC [28]: 0.78 µg/mL (≈ 0.84 µM); MIC ([30]; agar-dilution, read-out: MIC): 0.12 µg/mL (≈ 0.129 µM)

From patent US4820694A, “Modifications of 3-O-demethylmycinose in macrocin and lactenocin” (priority 1986, dated 1989)
